From the supplement of paper PMC11061612

Columns and labels:
Test in all cases: combination Emax (second highest fraction inhibited in the dose matrix, 72 h); higher = more inhibition; extreme values may be limits of the assay
MCF7 (Breast Carcinoma) = test system: MCF7 (Breast Carcinoma)
Outline: (§1)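 Bliss excess equals the observed combination effect minus the expected value EA + EB − EA·EB, where EA and EB are the effects of each agent alone. Combination Emax is the second-highest inhibition within the matrix. Inhibition was scaled from CellTiter-Glo 2.0 luminescence, with 0 set by vehicle wells and 1 by blank wells, after 72 hours of two-drug dosing of cells plated in 1536-well plates.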

H4 (Low Grade Glioma) = test system: H4 (Low Grade Glioma)
Outline: as §1

EW-22 (Ewing's Sarcoma) = test system: EW-22 (Ewing's Sarcoma)
Outline: as §1

[1] = test system: ETK-1 (Biliary Tract Carcinoma)
Outline: as §1

[2] = test system: SKN-3 (Head and Neck Carcinoma)
Outline: as §1

[3] = test system: CAL-39 (Other Solid Carcinomas)
Outline: as §1

CS1 (Chondrosarcoma) = test system: CS1 (Chondrosarcoma)
Outline: as §1

D-392MG (Glioblastoma) = test system: D-392MG (Glioblastoma)
Outline: as §1

Saos-2 (Osteosarcoma) = test system: Saos-2 (Osteosarcoma)
Outline: as §1

[4] = test system: SW948 (Colorectal Carcinoma)
Outline: as §1

[5] = test system: SNU-61 (Colorectal Carcinoma)
Outline: as §1

[6] = test system: TYK-nu (Ovarian Carcinoma)
Outline: as §1

[7] = test system: SK-UT-1 (Other Solid Carcinomas)
Outline: as §1

[8] = test system: SW48 (Colorectal Carcinoma)
Outline: as §1

[9] = test system: YT (Other Blood Carcinomas)
Outline: as §1

[10] = test system: WSU-DLCL2 (B-Cell Non-Hodgkin's Lymphoma)
Outline: as §1

[11] = test system: 647-V (Bladder Carcinoma)
Outline: as §1

[12] = test system: SNG-M (Endometrial Carcinoma)
Outline: as §1

[13] = test system: DOK (Oral Cavity Carcinoma)
Outline: as §1

Row | Structure (SMILES) | combination Emax (MCF7 (Breast Carcinoma)) | combination Emax (H4 (Low Grade Glioma)) | combination Emax (EW-22 (Ewing's Sarcoma)) | combination Emax [1] | combination Emax [2] | combination Emax [3] | combination Emax (CS1 (Chondrosarcoma)) | combination Emax (D-392MG (Glioblastoma)) | combination Emax (Saos-2 (Osteosarcoma)) | combination Emax [4] | combination Emax [5] | combination Emax [6] | combination Emax [7] | combination Emax [8] | combination Emax [9] | combination Emax [10] | combination Emax [11] | combination Emax [12] | combination Emax [13]
1 | Cn1cnc2c(F)c(Nc3ccc(Br)cc3Cl)c(C(=O)NOCCO)cc21 [Selumetinib] + CC(C)n1c(=O)n(C)c2cnc3cc(F)c(-c4ccc(OCCCN5CCCCC5)nc4)cc3c21 [AZD1390] (first compound max 10 µM, 7x7, partner max 0.3 µM) | 0.084 | 0.13 | 0.128 | 0.122 | 0.228 | 0.643 | 0.256 | 0.145 | 0.153 | 0.698 | 0.389 | 0.548 | 0.153 | 0.38 | 0.16 | 0.14 | 0.154 | 0.187 | 0.416
2 | CC(=O)c1c(C)c2cnc(Nc3ccc(N4CCNCC4)cn3)nc2n(C2CCCC2)c1=O [Palbociclib] + Cn1cnc2c(F)c(Nc3ccc(Br)cc3Cl)c(C(=O)NOCCO)cc21 [Selumetinib] (first compound max 10 µM, 7x7, partner max 10 µM) | 0.366 | 0.632 | 0.25 | 0.347 | 0.349 | 0.775 | 0.408 | 0.262 | 0.232 | 0.665 | 0.447 | 0.584 | 0.137 | 0.626 | 0.606 | 0.834 | 0.206 | 0.296 | 0.5
3 | Cn1cnc2c(F)c(Nc3ccc(Br)cc3Cl)c(C(=O)NOCCO)cc21 [Selumetinib] + C=CCn1c(=O)c2cnc(Nc3ccc(N4CCN(C)CC4)cc3)nc2n1-c1cccc(C(C)(C)O)n1 [AZD1775] (first compound max 10 µM, partner max 1 µM) | 0.247 | 0.739 | 0.573 | 0.384 | 0.477 | 0.726 | 0.386 | 0.263 | 0.551 | 0.79 | 0.527 | 0.715 | 0.58 | 0.433 | 0.945 | 0.961 | 0.651 | 0.555 | 0.618
4 | NC1(C(=O)N[C@@H](CCO)c2ccc(Cl)cc2)CCN(c2ncnc3[nH]ccc23)CC1 [Capivasertib] + CC(C)n1c(=O)n(C)c2cnc3cc(F)c(-c4ccc(OCCCN5CCCCC5)nc4)cc3c21 [AZD1390] (first compound max 10 µM, 7x7, partner max 0.3 µM) | 0.459 | 0.515 | 0.437 | 0.331 | 0.2 | 0.457 | 0.298 | 0.228 | 0.473 | 0.575 | 0.146 | 0.309 | 0.354 | 0.497 | 0.336 | 1 | 0.22 | 0.29 | 0.5
5 | C[C@@H](c1ccc2nccn2c1)n1nnc2ncc(-c3cnn(C)c3)nc21 [Savolitinib] + CC1(C)CCC(CN2CCN(c3ccc(C(=O)NS(=O)(=O)c4ccc(NCC5CCOCC5)c([N+](=O)[O-])c4)c(Oc4cnc5[nH]ccc5c4)c3)CC2)=C(c2ccc(Cl)cc2)C1 [Venetoclax] (first compound max 1 µM, 7x7, partner max 1 µM) | 0.129 | 0.218 | 0.173 | 0.0864 | 0.148 | 0.157 | 0.343 | 0.266 | 0.121 | 0.166 | 0.143 | 0.168 | 0.149 | 0.177 | 0.336 | 0.304 | 0.0716 | 0.246 | 0.116
6 | CC(=O)c1c(C)c2cnc(Nc3ccc(N4CCNCC4)cn3)nc2n(C2CCCC2)c1=O [Palbociclib] + Cc1c2c(nn1C)CSCc1cc(n(C)n1)CSc1cc(c3ccccc3c1)OCCCc1c(C(=O)O)n(C)c3c-2c(Cl)ccc13 [AZD5991] (first compound max 10 µM, 7x7, partner max 1 µM) | 0.574 | 0.601 | 0.515 | 0.303 | 0.244 | 0.409 | 0.304 | 0.4 | 0.332 | 0.406 | 0.171 | 0.405 | 0.223 | 0.409 | 1 | 0.991 | 0.117 | 0.485 | 0.311
7 | NC1(C(=O)N[C@@H](CCO)c2ccc(Cl)cc2)CCN(c2ncnc3[nH]ccc23)CC1 [Capivasertib] + C[C@@H]1COCCN1C2=NC(=NC(=C2)C3(CC3)[S@](=N)(=O)C)C4=C5C=CNC5=NC=C4 [AZD6738] (first compound max 10 µM, 7x7, partner max 10 µM) | 0.731 | 0.809 | 0.908 | 0.695 | 0.566 | 0.653 | 0.621 | 0.464 | 0.586 | 0.675 | 0.309 | 0.728 | 0.829 | 0.759 | 0.838 | 1 | 0.76 | 0.888 | 0.601
8 | NC1(C(=O)N[C@@H](CCO)c2ccc(Cl)cc2)CCN(c2ncnc3[nH]ccc23)CC1 [Capivasertib] + COc1nnc2ccc(N3CCC(c4ccc(OCCN5CCN(C)C(=O)[C@H]5C)cc4)CC3)nn12 [AZD5153] (first compound max 10 µM, 7x7, partner max 1 µM) | 0.754 | 0.744 | 0.834 | 0.503 | 0.581 | 0.787 | 0.455 | 0.512 | 0.554 | 0.699 | 0.303 | 0.632 | 0.658 | 0.828 | 0.792 | 1 | 0.502 | 0.749 | 0.768
9 | NC1(C(=O)N[C@@H](CCO)c2ccc(Cl)cc2)CCN(c2ncnc3[nH]ccc23)CC1 [Capivasertib] + Cn1cnc2c(F)c(Nc3ccc(Br)cc3Cl)c(C(=O)NOCCO)cc21 [Selumetinib] (first compound max 10 µM, 7x7, partner max 10 µM) | 0.519 | 0.61 | 0.543 | 0.48 | 0.426 | 0.762 | 0.502 | 0.484 | 0.46 | 0.829 | 0.46 | 0.667 | 0.447 | 0.556 | 0.446 | 1 | 0.3 | 0.648 | 0.931
10 | CS(=O)(=O)CCNCc1ccc(-c2ccc3ncnc(Nc4ccc(OCc5cccc(F)c5)c(Cl)c4)c3c2)o1 [Lapatinib] + C[C@@H](Oc1cc(-c2cnn(C3CCNCC3)c2)cnc1N)c1c(Cl)ccc(F)c1Cl [Crizotinib] (first compound max 10 µM, 7x7, partner max 10 µM) | 0.981 | 0.944 | 0.887 | 0.958 | 0.738 | 1 | 0.797 | 0.498 | 0.889 | 0.819 | 0.697 | 0.719 | 0.511 | 0.911 | 0.939 | 0.924 | 0.906 | 0.955 | 0.979
11 | Cn1cnc2c(F)c(Nc3ccc(Br)cc3Cl)c(C(=O)NOCCO)cc21 [Selumetinib] + C[C@@H]1COCCN1C2=NC(=NC(=C2)C3(CC3)[S@](=N)(=O)C)C4=C5C=CNC5=NC=C4 [AZD6738] (first compound max 10 µM, 7x7, partner max 10 µM) | 0.468 | 0.672 | 0.855 | 0.587 | 0.457 | 0.697 | 0.472 | 0.302 | 0.456 | 0.732 | 0.527 | 0.732 | 0.801 | 0.723 | 0.801 | 0.762 | 0.757 | 0.866 | 0.51
12 | COc1nnc2ccc(N3CCC(c4ccc(OCCN5CCN(C)C(=O)[C@H]5C)cc4)CC3)nn12 [AZD5153] + C=CCn1c(=O)c2cnc(Nc3ccc(N4CCN(C)CC4)cc3)nc2n1-c1cccc(C(C)(C)O)n1 [AZD1775] (first compound max 1 µM, partner max 1 µM) | 0.684 | 0.884 | 0.781 | 0.576 | 0.634 | 0.788 | 0.553 | 0.497 | 0.854 | 0.655 | 0.601 | 0.772 | 0.787 | 0.66 | 0.917 | 0.996 | 0.637 | 0.642 | 0.658
13 | COc1nnc2ccc(N3CCC(c4ccc(OCCN5CCN(C)C(=O)[C@H]5C)cc4)CC3)nn12 [AZD5153] + CC1(C)CCC(CN2CCN(c3ccc(C(=O)NS(=O)(=O)c4ccc(NCC5CCOCC5)c([N+](=O)[O-])c4)c(Oc4cnc5[nH]ccc5c4)c3)CC2)=C(c2ccc(Cl)cc2)C1 [Venetoclax] (first compound max 1 µM, 7x7, partner max 1 µM) | 0.669 | 0.677 | 0.6 | 0.445 | 0.467 | 0.631 | 0.408 | 0.45 | 0.535 | 0.513 | 0.389 | 0.571 | 0.543 | 0.631 | 0.714 | 1 | 0.463 | 0.548 | 0.431
